Data on four molecules can be found in US20020115649A1, “Use of texaphyrins in macrophage-mediated disease” (Pharmacyclics, Inc., priority 1998, published 2002).

The nature of one data set: Redox potentials listing. It is filed as physicochemical. From the text: Texaphyrin is a known radiosensitizer. Not wanting to be bound by theory, texaphyrin is thought to act as a radiosensitizer in the following manner. Oxygen is the ultimate electron acceptor in physiological systems. However, texaphyrins have a redox potential below that of oxygen.
A short description of data set [1]: Cardiac toxicity study for texaphyrin and doxorubicin. Format: in vivo, Sprague Dawley rats. The conditions noted are these: 20 micromoles/kg i.v. 1 hour after doxorubicin 1 mg/kg, once a week for twelve weeks; versus doxorubicin alone.
Procedure: To test whether gadolinium texaphyrin exacerbates cardiac toxicity, Sprague Dawley rats were injected intravenously either with 5% mannitol (10 ml/kg, n=6), or doxorubicin (1 mg/kg, n=14), or doxorubicin (1 mg/kg) followed 1 hour later by gadolinium texaphyrin (20 micromoles/kg, n=14). The dosing schedule was repeated once a week for twelve weeks. Animals were sacrificed one week post the last dose, and hearts were fixed in formalin.
Data set [2] concerns restenosis of balloon-injured carotid artery. The data set can be described thus: Radiation therapy of balloon-injured rat carotid artery in preventing restenosis. It is filed as in vivo, Sprague-Dawley male rats. The note with it: 2 weeks post-treatment. From the text: The rat carotid model was used for the studies. Sprague-Dawley male rats weighing about 400-450 g were anesthetized and maintained with Ketamine/Rompun cocktail via the animal's tail vein. The rats were shaved to expose the chest and neck, and a midline incision was made to expose the left common carotid artery, the external carotid artery, and the internal carotid artery. The internal carotid artery was temporally ligated. A small incision was made in the external carotid artery and a 2F Fogarty arterial embolectomy balloon catheter (Baxter Cardiovascular Group, Irvine, Calif.) was introduced from the external carotid artery to the common carotid artery. The balloon was inflated with 0.2 ml of saline and withdrawn from near to the common carotid bifurcation with a rotating motion to produce uniform endothelial denudation and medial stretching in the common carotid artery. After 3 passages, the catheter was removed, the external carotid artery was ligated, and the internal carotid artery was untied. The incision was then closed.
GdT2BET (2mM in 5% mannitol) at 20 μmol/kg was injected via the tail vein 22 hours following balloon denudation of the carotid artery. Radiation therapy was performed 2 hours after the gadolinium texaphyrin injection. The treatment area was marked and a 250 kV X-ray radiation machine was used. […]

The test system of data set [3] is macrophage of restenotic tissue. The data set can be described thus: Photodynamic therapy of balloon-induced iliac artery lesions (local delivery plus intravascular light). Format: in vivo, New Zealand White rabbits. How it is done:
Bilateral iliac artery lesions were induced in 9 male New Zealand White rabbits (NZW) after being on a high cholesterol diet (1%, Dyets, Bethlehem, Pa.) for 3 weeks. Each rabbit was anesthetized using a mixture of ketamine […]. The right carotid artery was exposed, carefully excised and a 5 Fr sheath (USCI) inserted into the descending aorta under fluoroscopic guidance. A 3.0 mm angioplasty balloon was advanced into the right or left iliac artery and then inflated distal to the deep femoral artery three times at 8 atm for 30 seconds. Subsequently, the same procedure was repeated in the contralateral iliac artery. Animals were maintained on the high cholesterol diet.
Six weeks after the denudation, each rabbit was reanesthetized. The left carotid artery was exposed, carefully excised and a 6 Fr sheath (USCI) inserted into the descending aorta under fluoroscopic guidance. A local drug delivery balloon (3 mm, Scimed, Minneapolis, Minn.) was advanced to the left or right iliac artery and placed at the same position as the previous balloon injury site. The proximal end of the delivery catheter was placed at the internal iliac artery under fluoroscopic control as a landmark reference. The balloon was inflated to 6 atm and 1 μmol/kg lutetium texaphyrin (LuT2BET) (2 mM in 5% mannitol) was infused intraarterially adjacent to the atheroma at a rate of 0.2 ml/min. Fifteen minutes post infusion a 0.9 mm optical fiber with a 3 cm cylindrical diffuser (Laserscope Inc., San Jose, Calif.) connected to an argon pumped dye laser (732 nm, Coherent Inc., Palo Alto, Calif.) delivered intravascular light at 180 J/cmF. One rabbit served as a light alone (no LuT2BET) control.
Two weeks following light treatment, each animal was euthanized and both iliac arteries were carefully removed from the adjacent tissue. Care was taken to harvest the exact portion of the artery where local drug delivery occurred by matching the anatomy with the respective fluoroscopic picture. The contralateral artery in the LuT2BET-treated rabbit served as a sensitizer alone control vessel. The vessels were fixed in 10% buffered formalin, embedded in paraffin and stained sequentially with RAM 11 (an antibody that binds with a cytoplasmic antigen in rabbit macrophages (DAKO)), and hematoxylin and eosin (H&E) for light microscopic analysis and planimetry.

The nature of data set [4]: Maximum tolerated dose of lutetium texaphyrin in one study. Format: in vivo. The conditions noted are these: intravenous injection; determined in one study. The method, then: Administration for Photodynaminc Therapy: By way of example, lutetium texaphyrin is administered in solution containing 2 mg/ml optionally in 5% mannitol, USP. Dosages of about 1.0 or 2.0 mg/kg to about 4.0 or 5.0 mg/kg, preferably 3.0 mg/kg may be employed, up to a maximum tolerated dose that was determined in one study to be 5.2 mg/kg. The texaphyrin is administered by intravenous injection, followed by a waiting period of from as short a time as several minutes or about 3 hours to as long as about 72 or 96 hours (depending on the treatment being effected) to facilitate intracellular uptake and clearance from the plasma and extracellular matrix prior to the administration of photoirradiation.

Data set [5] concerns artery closure after angioplasty. The note with it: in vivo; cited from earlier work.

On to `CC(=O)O.CC(=O)O.CCc1c(CC)c2cc3nc(cnc4cc(OCCOCCOCCOC)c(OCCOCCOCCOC)cc4ncc4nc(cc1[n-]2)C(CCCO)=C4C)C(C)=C3CCCO.[Gd]` [GdT2B2], for which, in “Redox potentials listing”, the redox potential entry was “+0.08 V”.

For the molecule `CC(=O)[O-].CC(=O)[O-].CCc1c(CC)c2cc3nc(cnc4cc(OCCOCCOCCOC)c(OCCOCCOCCOC)cc4ncc4nc(cc1[n-]2)C(CCCO)=C4C)C(C)=C3CCCO.O.[Gd+3]` [GdT2BET], in data set [1], the “cardiac toxicity (histologic evaluation)” value is “did not significantly exacerbate cardiac toxicity”. In data set [2] (20 μmol/kg i.v. 22 hours after balloon denudation, 7 Gray X-ray 2 hours later, controls 100% restenosis), the “restenosis in H&E sections, animals of four treated” value was “three had no evidence of restenosis”. Further, the “restenosis, lumen circumference affected in the fourth animal” value in data set [2] (20 μmol/kg i.v. plus 7 Gray) is “up to 40%”.

On to `CC(=O)[O-].CC(=O)[O-].CCc1c(CC)c2cc3nc(cnc4cc(OCCOCCOCCOC)c(OCCOCCOCCOC)cc4ncc4nc(cc1[n-]2)C(CCCO)=C4C)C(C)=C3CCCO.O.[Lu+3]` [LuT2BET], for which the “macrophages in treated lesion in intima (RAM 11 quantitative analysis)” value in data set [3] (1 μmol/kg intraarterial plus 732 nm light, two weeks after light, versus 21±18%, P<<0.01) turned out to be 5.1±5.3%. In addition, in data set [3] (1 μmol/kg intraarterial plus 732 nm light, two weeks after light, versus 22±20%, P<<0.01), the “macrophages in treated lesion in media (RAM 11 quantitative analysis)” value is recorded as 7.7±10%. Besides, in data set [3] (1 μmol/kg intraarterial, 732 nm light 15 min post infusion, two weeks after light, nontreated segments 81±12%, P<<0.01), the “Mean % plaque area in the treated segments” value was determined as 73±10%. For the same molecule, the “destruction of activated macrophages” value in data set [3] (with photoirradiation) was “selectively destroys activated macrophages”. The molecule further showed a maximum tolerated dose in data set [4] of 5.2 mg/kg.

B1: Abciximab (antibody, chains of the INN, looked up, V domains shown)
VH: EVQLQQSGTVLARPGASVKMSCEASGYTFTNYWMHWVKQRPGQGLEWIGAIYPGNSDTSYIQKFKGKAKLTAVTSTTSVYMELSSLTNEDSAVYYCTLYDGYYVFAYWGQGTLVTVSA
VL: EIVLTQSPVTLSVTPGDSVSLSCRASRDISNNLHWFQQTSHESPRLLIKYASQSMSGIPSRFSGSGSGTDFTLSINSVETEDFGMYFCQQTNSWPYTFGGGTKLEIK
modifications: Fab
As to B1, the “reduction of the risk of artery closure after angioplasty” value in data set [5] is reported as “up to 70%”.
